From ChEMBL document CHEMBL3769309, “Design, synthesis and biological evaluation of bisthiazole-based trifluoromethyl ketone derivatives as potent HDAC inhibitors with improved cellular efficacy” (Eur J Med Chem, 2016) come the findings set out here.

The subject of experiment [1] is LP-1. Briefly: Antiproliferative activity against human LP-1 cells after 72 hrs by CellTiter 96 aqueous non-radioactive cell proliferation assay. The experiment is classed as functional, cell-based. The following applies: LP-1, 72 h.
Experiment [2] is described as follows: Antiproliferative activity against human RPMI8226 cells after 72 hrs by CellTiter 96 aqueous non-radioactive cell proliferation assay. Type of experiment: functional, cell-based. The following applies: RPMI-8226, 72 h.
Experiment [3] has as its system RPMI-8226. The experiment can be described thus: Induction of apoptosis in human RPMI8226 cells assessed as increase in cleaved PARP level after 24 hrs by Western immunoblotting method. Type of experiment: functional, cell-based. On the technique in general: Immunoblotting shows a protein as a band on a membrane.
The nature of experiment [4]: Antiproliferative activity against human Mino cells after 72 hrs by CellTiter 96 aqueous non-radioactive cell proliferation assay. The experiment is classed as functional, cell-based.
The nature of experiment [5]: Antiproliferative activity against human MM1S cells after 72 hrs by CellTiter 96 aqueous non-radioactive cell proliferation assay. The experiment is classed as functional, cell-based. The following applies: MM1.S.
Experiment [6] concerns RPMI-8226. Briefly: Induction of apoptosis in human RPMI8226 cells assessed as viable cells at 0.3 uM after 48 hrs by annexin V-FITC/propidium iodide staining-based flow cytometry (reference value: 87.2%). The experiment is classed as functional. The note with it: RPMI-8226, 48 h, read-out: Activity.
The test system of experiment [7] is RPMI-8226. The experiment can be described thus: Induction of apoptosis in human RPMI8226 cells assessed as late apoptotic cells at 0.3 uM after 48 hrs by annexin V-FITC/propidium iodide staining-based flow cytometry (reference value: 4.4%). The experiment is classed as functional.
Experiment [8] has as its system RPMI-8226. The experiment can be described thus: Induction of apoptosis in human RPMI8226 cells assessed as early apoptotic cells at 1 uM after 48 hrs by annexin V-FITC/propidium iodide staining-based flow cytometry (reference value: 6.3%). The experiment is classed as functional.
In experiment [9] the test system is RPMI-8226. The experiment can be described thus: cells. Type of experiment: functional. The following applies: Homo sapiens, RPMI-8226, 48 h.
The nature of experiment [10]: Antiproliferative activity against human NCI-H929 cells after 72 hrs by CellTiter 96 aqueous non-radioactive cell proliferation assay. The experiment is classed as functional, cell-based. The following applies: NCI-H929, 72 h.
Experiment [11] relates to RPMI-8226. The experiment can be described thus: Induction of apoptosis in human RPMI8226 cells assessed as dead cells at 1 uM after 48 hrs by annexin V-FITC/propidium iodide staining-based flow cytometry (reference value: 2%). Type of experiment: functional.
Experiment [12] is described as follows: Antiproliferative activity against human JeKo1 cells after 72 hrs by CellTiter 96 aqueous non-radioactive cell proliferation assay. Type of experiment: functional, cell-based. The following applies: JeKo-1, 72 h.
Experiment [13] concerns RPMI-8226. The experiment can be described thus: Induction of apoptosis in human RPMI8226 cells assessed as dead cells at 0.3 uM after 48 hrs by annexin V-FITC/propidium iodide staining-based flow cytometry (reference value: 2%). The experiment is classed as functional.
The test system of experiment [14] is RPMI-8226. The experiment can be described thus: Induction of apoptosis in human RPMI8226 cells assessed as early apoptotic cells at 0.3 uM after 48 hrs by annexin V-FITC/propidium iodide staining-based flow cytometry (reference value: 6.3%). The experiment is classed as functional.
Experiment [15] concerns RPMI-8226. Briefly: Induction of apoptosis in human RPMI8226 cells assessed as viable cells at 1 uM after 48 hrs by annexin V-FITC/propidium iodide staining-based flow cytometry (reference value: 87.2%). The experiment is classed as functional. The following applies: RPMI-8226, 48 h, read-out: Activity. In general terms: In flow cytometry, cells or beads pass a laser one at a time.

The target in experiment [16] is Histone deacetylase 4 (Homo sapiens, UniProt P56524). The experiment can be described thus: Inhibition of full length His6-tagged GST-fused recombinant human HDAC4 expressed in High5 insect cells using Ac-Lys-Tyr-Lys (e-acetyl)-AMC as substrate after 24 hrs by fluorescence assay. Type of experiment: cell-based.
Sequence of Histone deacetylase 4 (P56524 whole entry, the tested form may be a part): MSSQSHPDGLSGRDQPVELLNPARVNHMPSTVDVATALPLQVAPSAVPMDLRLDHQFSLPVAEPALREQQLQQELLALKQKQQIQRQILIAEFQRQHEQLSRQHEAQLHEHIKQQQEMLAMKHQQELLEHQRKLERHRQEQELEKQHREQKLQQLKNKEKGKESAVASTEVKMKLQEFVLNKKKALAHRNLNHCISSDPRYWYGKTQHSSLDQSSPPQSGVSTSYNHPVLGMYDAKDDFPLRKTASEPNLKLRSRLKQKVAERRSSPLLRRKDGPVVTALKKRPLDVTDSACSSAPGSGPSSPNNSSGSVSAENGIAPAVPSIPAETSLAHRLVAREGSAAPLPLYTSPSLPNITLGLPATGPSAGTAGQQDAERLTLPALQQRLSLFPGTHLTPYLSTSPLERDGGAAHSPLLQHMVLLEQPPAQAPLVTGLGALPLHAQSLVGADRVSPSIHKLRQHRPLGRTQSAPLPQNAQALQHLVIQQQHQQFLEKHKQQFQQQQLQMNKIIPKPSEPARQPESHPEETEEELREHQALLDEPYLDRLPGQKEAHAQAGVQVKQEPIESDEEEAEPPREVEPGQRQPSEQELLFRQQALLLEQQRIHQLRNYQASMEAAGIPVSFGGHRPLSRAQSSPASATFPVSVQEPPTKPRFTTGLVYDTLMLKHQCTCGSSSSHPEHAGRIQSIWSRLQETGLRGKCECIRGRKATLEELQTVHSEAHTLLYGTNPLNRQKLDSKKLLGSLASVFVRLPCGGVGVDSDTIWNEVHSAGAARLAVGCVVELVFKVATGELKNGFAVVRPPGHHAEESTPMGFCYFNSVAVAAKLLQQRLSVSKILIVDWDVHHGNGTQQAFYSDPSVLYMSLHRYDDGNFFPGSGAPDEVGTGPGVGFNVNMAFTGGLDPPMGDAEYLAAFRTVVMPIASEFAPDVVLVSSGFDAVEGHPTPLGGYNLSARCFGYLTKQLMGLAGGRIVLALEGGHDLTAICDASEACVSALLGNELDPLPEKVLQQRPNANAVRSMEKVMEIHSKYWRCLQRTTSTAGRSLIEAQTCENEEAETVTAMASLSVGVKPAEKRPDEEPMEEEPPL
Experiment [17] concerns RPMI-8226. Briefly: Induction of apoptosis in human RPMI8226 cells assessed as late apoptotic cells at 1 uM after 48 hrs by annexin V-FITC/propidium iodide staining-based flow cytometry (reference value: 4.4%). Type of experiment: functional.
For experiment [18], the target named is Histone deacetylase 3 (Homo sapiens, UniProt O15379). The experiment can be described thus: Inhibition of full length His6-tagged GST-fused recombinant human HDAC3 expressed in High5 insect cells using Ac-Lys-Tyr-Lys (e-acetyl)-AMC as substrate after 24 hrs by fluorescence assay. Type of experiment: cell-based.
Sequence of Histone deacetylase 3 (O15379 whole entry, the tested form may be a part): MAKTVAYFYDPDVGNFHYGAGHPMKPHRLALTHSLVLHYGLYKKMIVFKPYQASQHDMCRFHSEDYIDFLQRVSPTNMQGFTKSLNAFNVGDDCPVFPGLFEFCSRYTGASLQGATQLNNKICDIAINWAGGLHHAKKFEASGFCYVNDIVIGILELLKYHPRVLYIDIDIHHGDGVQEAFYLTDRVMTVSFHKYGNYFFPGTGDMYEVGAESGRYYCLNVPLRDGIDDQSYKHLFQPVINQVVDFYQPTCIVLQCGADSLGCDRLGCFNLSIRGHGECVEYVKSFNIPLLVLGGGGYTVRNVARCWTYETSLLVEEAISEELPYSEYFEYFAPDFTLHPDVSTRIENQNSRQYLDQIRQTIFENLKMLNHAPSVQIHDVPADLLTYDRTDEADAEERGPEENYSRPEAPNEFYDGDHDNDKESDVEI
Experiment [19] has as its target T1, Protein deacetylase HDAC6 (Homo sapiens, UniProt Q9UBN7).
T1 sequence (Q9UBN7 whole entry): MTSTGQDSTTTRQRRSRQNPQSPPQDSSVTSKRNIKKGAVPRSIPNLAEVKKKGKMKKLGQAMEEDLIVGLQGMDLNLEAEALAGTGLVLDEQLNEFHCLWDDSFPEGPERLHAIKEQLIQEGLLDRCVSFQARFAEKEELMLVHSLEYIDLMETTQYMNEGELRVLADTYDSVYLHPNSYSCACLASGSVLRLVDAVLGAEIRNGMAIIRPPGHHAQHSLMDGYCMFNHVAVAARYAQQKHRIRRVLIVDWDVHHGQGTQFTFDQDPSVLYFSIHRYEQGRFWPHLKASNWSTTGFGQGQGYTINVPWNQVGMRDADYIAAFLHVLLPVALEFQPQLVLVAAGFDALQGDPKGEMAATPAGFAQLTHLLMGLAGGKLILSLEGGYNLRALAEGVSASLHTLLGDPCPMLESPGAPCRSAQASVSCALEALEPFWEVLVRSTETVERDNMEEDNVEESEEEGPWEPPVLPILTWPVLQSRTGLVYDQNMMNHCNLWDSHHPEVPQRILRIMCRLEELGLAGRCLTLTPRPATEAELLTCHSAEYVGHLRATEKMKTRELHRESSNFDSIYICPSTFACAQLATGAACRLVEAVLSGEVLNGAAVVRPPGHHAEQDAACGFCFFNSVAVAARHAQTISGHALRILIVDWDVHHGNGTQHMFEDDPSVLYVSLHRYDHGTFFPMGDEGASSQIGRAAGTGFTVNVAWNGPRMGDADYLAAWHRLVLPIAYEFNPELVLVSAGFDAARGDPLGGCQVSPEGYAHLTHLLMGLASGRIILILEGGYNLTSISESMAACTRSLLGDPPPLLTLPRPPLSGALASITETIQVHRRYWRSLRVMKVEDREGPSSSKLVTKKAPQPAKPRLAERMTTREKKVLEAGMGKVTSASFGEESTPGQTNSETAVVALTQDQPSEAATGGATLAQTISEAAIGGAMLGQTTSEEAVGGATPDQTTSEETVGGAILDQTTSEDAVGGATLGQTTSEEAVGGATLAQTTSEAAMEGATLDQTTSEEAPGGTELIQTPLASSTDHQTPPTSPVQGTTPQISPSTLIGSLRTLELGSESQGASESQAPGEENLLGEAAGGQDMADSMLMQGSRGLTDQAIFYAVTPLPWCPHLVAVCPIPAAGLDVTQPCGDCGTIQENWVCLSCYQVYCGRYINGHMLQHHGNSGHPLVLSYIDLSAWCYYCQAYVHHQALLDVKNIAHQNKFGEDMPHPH
The experiment can be described thus: Inhibition of full length His6-tagged GST-fused recombinant human HDAC6 expressed in High5 insect cells using Boc-Lys (e-acetyl)-AMC as substrate after 3 hrs by fluorescence assay. Type of experiment: cell-based.

The target of experiment [20] is Histone deacetylase 1 (Homo sapiens, UniProt Q13547). Briefly: Inhibition of full length His6-tagged GST-fused recombinant human HDAC1 expressed in High5 insect cells using Ac-Lys-Tyr-Lys (e-acetyl)-AMC as substrate after 24 hrs by fluorescence assay. Type of experiment: cell-based.
Sequence of Histone deacetylase 1 (Q13547 whole entry, the tested form may be a part): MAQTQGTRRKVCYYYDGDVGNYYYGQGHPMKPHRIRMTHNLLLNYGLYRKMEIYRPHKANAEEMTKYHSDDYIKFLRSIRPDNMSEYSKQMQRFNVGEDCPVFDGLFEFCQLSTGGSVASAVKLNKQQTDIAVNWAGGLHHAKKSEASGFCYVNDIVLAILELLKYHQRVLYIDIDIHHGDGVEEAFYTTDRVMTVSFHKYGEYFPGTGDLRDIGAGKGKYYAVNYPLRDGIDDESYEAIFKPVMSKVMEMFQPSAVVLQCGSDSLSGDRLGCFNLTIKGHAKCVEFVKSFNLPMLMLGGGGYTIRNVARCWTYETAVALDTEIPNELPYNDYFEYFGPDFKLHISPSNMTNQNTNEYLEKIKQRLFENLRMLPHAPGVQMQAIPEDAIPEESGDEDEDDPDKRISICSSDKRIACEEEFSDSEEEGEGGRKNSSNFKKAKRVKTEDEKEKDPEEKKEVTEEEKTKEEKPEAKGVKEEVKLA

In the case of `O=C(NCCCCC(=O)C(F)(F)F)c1nc(-c2nccs2)sc1C1CC1`, the IC50 – broadly, the concentration at which inhibition is half-maximal – was determined as 0.37 µM in experiment [1]; 0.085 µM in experiment [2]; 0.12 µM in experiment [4]; 0.39 µM in [5]; 1.23 µM in [10]; 0.064 µM in [12]. The IC50 in experiment [16] came to 0.0315 µM. Further, the Activity entry in [3] was “Dose-dependent effect”; in experiment [7], 23.9%; in [8] it was 13.4%; in [11] it was 7.7%; in [13], 2.8%; in experiment [14], 15.4%. Moreover, the Activity in experiment [17] was found to be 50.7%. The viability at 0.3 µM in [6] was 57.8%. The compound further had a viability at 3 µM in experiment [9] of 21.1%. In addition, in experiment [15], the viability at 1 µM is 28.2%.
As to `O=C(NCCCCCC(=O)C(F)(F)F)c1nc(-c2nccs2)sc1C1CC1`, the IC50 in experiment [16] was found to be 0.133 µM.
Consider `O=C(NCCCCCNC(=O)c1nc(-c2nccs2)sc1C1CC1)c1cccc(-c2noc(C(F)(F)F)n2)c1`, for which the IC50 in [18], in experiment [19], in experiment [20] and in [16] was greater than 10 µM throughout.
With `O=C(NO)NCCCCNC(=O)c1nc(-c2nccs2)sc1C1CC1`, the 50% inhibitory concentration (IC50) in experiment [16] was greater than 10 µM.
`O=C(NCCCCC(=O)C(F)(F)F)c1nc(-c2nccs2)sc1Cc1ccccc1`: the IC50 amounted to 0.0651 µM in [18], 0.0584 µM in [19], 0.0661 µM in experiment [20] and 0.0682 µM in [16].
For `Cc1cnc(-c2nc(C(=O)NCCCCC(=O)C(F)(F)F)c(C3CC3)s2)s1`, the IC50 in experiment [19] was found to be 0.0234 µM; in experiment [16] it was 0.032 µM.
Take `Nc1ccccc1NC(=O)CCCCNC(=O)c1nc(-c2nccs2)sc1C1CC1`: the IC50 in [16] is 2.09 µM.
As to `O=C(CCCCCCC(=O)Nc1ccccc1)NO` [VORINOSTAT], the IC50 in experiment [5] was found to be 0.82 µM.
In the case of `O=C(NCCCC(=O)C(F)(F)F)c1nc(-c2nccs2)sc1C1CC1`, in experiment [16], the IC50 was greater than 10 µM.
For the compound `CC(C)Cc1sc(-c2nccs2)nc1C(=O)NCCCCC(=O)C(F)(F)F`, in [16], the IC50 turned out to be 0.12 µM.
With `O=C(NCCCCC(O)C(F)(F)F)c1nc(-c2nccs2)sc1C1CC1` (stereo not drawn), the IC50 in [18] is 8.86 µM; in experiment [19], greater than 10 µM; in [20], greater than 10 µM; in experiment [16] it was greater than 10 µM.
Regarding `O=C(NCCCCC(=O)C(F)(F)F)c1nc(-c2nc3c(s2)CCCC3)sc1C1CC1`, the IC50 in [16] is 0.0234 µM.
